Reference: ChEMBL document CHEMBL5346873, “Strategic modification of low-activity natural antimicrobial peptides confers antibacterial potential in vitro and in vivo” (Eur J Med Chem, 2023)

What was measured:
[1] = tested on: Acinetobacter baumannii; test: Bactericidal activity against Acinetobacter baumannii incubated for overnight; type: functional
[2] = Hemolytic activity in human RBC at 100 ug/ml incubated for 1 hr; type: toxicity, cell-based, Erythrocyte; settings: human red blood cells (erythrocytes), at 100 µg/mL, read-out: Activity
[3] = tested on: Staphylococcus aureus; test: Bactericidal activity against Staphylococcus aureus incubated for overnight; type: functional
[4] = tested on: Vibrio vulnificus; test: Antibacterial activity against Vibrio vulnificus 204 assessed as induction of resistance development by measuring fold increase in MIC measured after 15 passages; type: functional

H-KKCIAKAILKKAKKLLDDLVNP-OH
MBC [1]: 6.25 µg/mL
hemolysis at 1 h, 100 ug/ml [2]: 0%
MBC [3]: > 100 µg/mL

H-KKCIAKAILKKADDLLDDLVNP-OH
MBC [1]: > 100 µg/mL
hemolysis at 1 h, 100 ug/ml [2]: 0%
MBC [3]: > 100 µg/mL

CN(C)[C@@H]1C(O)=C(C(N)=O)C(=O)[C@@]2(O)C(O)=C3C(=O)c4c(O)cccc4[C@@](C)(O)[C@H]3C[C@@H]12 [TETRACYCLINE]
fold change (FC) [4]: 128
